In US6303619A, “Meta-substituted acidic 8-phenylxanthine antagonists of A3 human adenosine receptors” (priority 1998, dated 2001):

Biological target: T1, human A3 adenosine receptor (Homo sapiens, UniProt P0DMS8)
T1 construct: clone HS-21a contained the complete open reading frame corresponding to the human homolog of the rat A3 adenosine receptor; expressed in transfected cells; host or cells: CHO cells stably transfected with HS-21a cDNA
T1 sequence (P0DMS8 1-318): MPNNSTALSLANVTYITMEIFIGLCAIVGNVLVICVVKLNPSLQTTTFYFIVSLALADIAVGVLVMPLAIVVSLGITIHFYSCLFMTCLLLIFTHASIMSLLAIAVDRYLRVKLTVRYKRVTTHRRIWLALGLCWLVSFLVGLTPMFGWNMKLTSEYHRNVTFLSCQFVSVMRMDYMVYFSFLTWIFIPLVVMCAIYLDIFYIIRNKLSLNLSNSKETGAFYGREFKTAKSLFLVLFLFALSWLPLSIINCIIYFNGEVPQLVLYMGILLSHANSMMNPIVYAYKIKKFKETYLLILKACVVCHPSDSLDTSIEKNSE
Test: 125I-ABA binding to membranes of stably transfected CHO cells expressing the human A3 adenosine receptor (HS-21a)
Conditions: human A3
Procedure: Membranes were prepared from transiently transfected COS7 cells […] after transfection or from G418-selected stably transfected CHO or HEK 293 cells. Cells were harvested in 1 mM EDTA in phosphate buffered saline and centrifuged at 2000×g for 10 minutes. The cell pellet was washed once with phosphate buffered saline. The cell pellet was resuspended in 2 mL of 5 mM Tris, pH 7.6/5mM MgCl2. Membranes were prepared from the cells by freeze-thaw lysis in which the suspension was frozen in a dry ice/ethanol bath and thawed at 25° C. twice. The suspension was homogenized after adding an additional 2 mL of 5 mM Tris, pH 7.6/5 mM MgCl2, in a glass dounce homogenizer with 20 strokes. The membranes were pelleted at 40,000×g at 4° C. for 20 minutes. The membrane pellet was resuspended at a protein concentration of 1-2 mg/mL in binding assay buffer, 50 mM Tris, pH 7.6/10 mM MgCl2. Protein concentration was determined by the method of Bradford ((1976) Anal. Biochem. 72: 248-250). […] Saturation binding of [^125 I]-N^6 -aminiobenizyladenosine (125I-ABA) or [^125 I]-N^6 -2-(4-amino-3-iodophenyl)ethyladenosine (APNEA) was performed on membranes prepared from pSVLA3 transfected COS7 cells. Membranes (100 μg) were incubated in the presence of 0.2 U/mL adenosine deaminase with increasing concentrations of ^125 I-ABA in the range of 0.1-30 nM for 120 minutes at 25° C. in a total volume of 500 μl. The binding assay was terminated by rapid filtration and three washes with ice-cold 50 mM Tris, pH 7.6/10 mM MgCl2 on a Skatron cell harvester equipped with a receptor binding flitermat (SKATRON INSTRUMENTS, INC). Non-specific binding was determined on non-transfected cells. Bound radioactivity was measured by scintillation counting in Ready Safe Scintillation Cocktail (BECKMAN).
The 1.7 kb HS-21a cDNA (A3) was subcloned as a SalI-BamHl fragment into the expression vector pCMV5 (Mumby, S. M., Heukeroth, R. O., Gordon, J. I. and Gilman, A. G. (1990) Proc. Natl. Acad. Sci. USA 87, 728-732.) creating the vector pCMV5-A3. CHO or HEK 293 cells stably expressing the human HS-21 a cDNA were prepared by co-transfection of 15 μg pCMV5-A3 and 1 μg pWLneo (Stratagene) using the calcium phosphate method. Stable cell lines were also generated using EBV based mammalian expression vectors, pREP (INVITROGEN). Neomycin resistant colonies were selected in 1 mg/mL G418 (GIBCO). Stable colonies were screened for expression of HS-21a by ^125 I-ABA binding.
Membranes were prepared from stable CHO cell lines in 10 mM Hepes, pH 7.4 containing 0.1 mM benzamidine and 0.1 mM PMSF as described (Mahan, L. C. et al., (1991) Mol. Pharinacol. 40, 1-7). Pellets were resuspended in 5 mM Hepes, pH 7.4/5 mM MgCl2 /0.1 mM benzarnidine/0.1 mM PMSF at a protein concentration of 1-2 mg/mL and were incubated with adenosine deaminase (Boehringer Mannheim), 2 U/mL at 37° C. for 20 minutes. Saturation binding of ^125 I-ABA was carried out on 50 μg of membranes for 120 minutes at 25° C. in a total volume of 100 μl. The assay was terminated by rapid filtration and three washes with ice-cold binding buffer on a Skatron harvester equipped with a receptor binding filtermat (Skatron Instruments, Inc.). The specific activity of ^125 I-ABA, initially 2,200 Ci/mmol, was reduced to 100 Ci/mmol with nonradioactive I-ABA for saturation analysis. Nonspecific binding was measured in the presence of 1 uM I-ABA. The KD and Bmax values were calculated by the EBDA program (McPherson, G. A. (1983) Computer Programs for Biomedicine 17, 107-114). Competition binding of agonists and antagonists was determined with ^125 I-ABA (0.17-2.0 nM, 2000 Ci/mmol). […] Binding data were analyzed and competition curves were constructed by use of the nonlinear regression curve fitting program Graph PAD InPlot, Version 3.0 (Graph Pad Software, San Diego).

SMILES: CCCn1c(=O)c2[nH]c(-c3cccc(C=CC(=O)O)c3)nc2n(CCC)c1=O [BW-3911]
- A3 antagonist affinity in words: potent and selective A3 antagonist
